Assay results as given in patent US9884818B2, “Sulphamoylpyrrolamide derivatives and the use thereof as medicaments for the treatment of hepatitis B” (Janssen Sciences Ireland UC, priority 2013, dated 2018).

How the values were obtained:
HBV [1] = assay: Anti-HBV activity, HepG2.117 inducibly HBV producing cell line (Tet-off), intracellular HBV DNA by realtime PCR; type: cell-based; conditions: Hepatitis B virus, HepG2.117, 72 h, HepG2.117 cells, 3 days of treatment, intracellular HBV DNA; read-out: HepG2 117 EC50
[2] = Cytotoxicity in HepG2 cells, Resazurin viability assay; conditions: human, HepG2 cells, HepG2 4 days CC50 (μM), incubated for 4 days, Resazurin assay
HBV [3] = assay: Anti-HBV activity, HepG2.2.15 stable transfected cell line, HBV DNA from secreted virions by realtime PCR; type: cell-based; conditions: Hepatitis B virus, HepG2.2.15, 144 h, HepG2.2.15 cells, 6 days of treatment, HBV DNA from secreted virions; read-out: HepG2 2.15 EC50

In the case of `Cn1cc(S(=O)(=O)NC(C)(C)C)cc1C(=O)Nc1cccc(C#N)c1F` [Compound 192, 4-(tert-Butylsulfamoyl)-N-(3-cyano-2-fluorophenyl)-1-methyl-1H-pyrrole-2-carboxamide], the EC50 (HBV [1]) is reported as 190 nM, the CC50 at 4 days [2] is reported as > 25 µM and the EC50 (HBV [3]) is reported as 570 nM.
For `Cn1cc(S(=O)(=O)NC2CCC(F)(F)C2)cc1C(=O)Nc1cc(F)c(F)c(Cl)c1` (racemic) [Compound 166, N-(3-Chloro-4,5-difluorophenyl)-4-[(3,3-difluorocyclopentyl)sulfamoyl]-1-methyl-1H-pyrrole-2-carboxamide], the EC50 (HBV [1]) was 120 nM, the CC50 at 4 days [2] was > 25 µM and the EC50 (HBV [3]) was 140 nM.
With `CC(CC(F)(F)F)NS(=O)(=O)c1cc(C(=O)Nc2ccc(F)c(Cl)c2F)n(C)c1` (stereo not drawn) [Compound 260, N-(3-chloro-2,4-difluoro-phenyl)-1-methyl-4-[(3,3,3-trifluoro-1-methylpropyl)sulfamoyl]-1H-pyrrole-2-carboxamide] the EC50 (HBV [1]) was 90 nM, the CC50 at 4 days [2] was > 25 µM and the EC50 (HBV [3]) was 70 nM.
In the case of `C[C@@H](NS(=O)(=O)c1cn(C)c(C(=O)Nc2cccc(C#N)c2F)c1F)C(F)(F)F` [Compound 182, N-(3-Cyano-2-fluorophenyl)-3-fluoro-1-methyl-4-{[(1R)-2,2,2-trifluoro-1-methylethyl]sulfamoyl}-1H-pyrrole-2-carboxamide], the EC50 (HBV [1]) is reported as 30 nM, the CC50 at 4 days [2] is reported as > 25 µM and the EC50 (HBV [3]) is reported as 10 nM.
In the case of `Cn1cc(S(=O)(=O)NC(C)(C)C)c(Cl)c1C(=O)Nc1ccc(F)c(F)c1` [Compound 223, 4-(tert-Butylsulfamoyl)-3-chloro-N-(3,4-difluorophenyl)-1-methyl-1H-pyrrole-2-carboxamide], the EC50 (HBV [1]) is reported as 90 nM, the CC50 at 4 days [2] is reported as > 25 µM and the EC50 (HBV [3]) is reported as 120 nM.
For `Cn1cc(S(=O)(=O)NC2(C)CC2)cc1C(=O)Nc1ccc(F)c(C#N)c1` [Compound 244, N-(3-cyano-4-fluoro-phenyl)-1-methyl-4-[(1-methylcyclopropyl)-sulfamoyl]pyrrole-2-carboxamide], the EC50 (HBV [1]) was 530 nM, the CC50 at 4 days [2] was > 25 µM and the EC50 (HBV [3]) was 140 nM.
With `CC[C@@H](C)NS(=O)(=O)c1cc(C(=O)Nc2cc(F)c(F)c(Br)c2)n(C)c1` [Compound 47, N-(3-bromo-4,5-difluoro-phenyl)-1-methyl-4-[[(1R)-1-methylpropyl]-sulfamoyl]pyrrole-2-carboxamide] the EC50 (HBV [1]) was 100 nM, the CC50 at 4 days [2] was > 25 µM and the EC50 (HBV [3]) was 100 nM.
For `Cn1cc(S(=O)(=O)NC2(C)CCOC2)cc1C(=O)Nc1ccc(F)c(F)c1` (stereo not drawn) [Compound 91, N-(3,4-Difluorophenyl)-1-methyl-4-[(3-methyltetrahydrofuran-3-yl)sulfamoyl]-1H-pyrrole-2-carboxamide], the EC50 (HBV [1]) was 40 nM, the CC50 at 4 days [2] was > 25 µM and the EC50 (HBV [3]) was 60 nM.
`C[C@@H](NS(=O)(=O)c1cc(C(=O)Nc2cc(F)c(F)c(Br)c2)n(C)c1)C(F)(F)F` [Compound 205, N-(3-Bromo-4,5-difluorophenyl)-1-methyl-4-{[(1R)-2,2,2-trifluoro-1-methylethyl]sulfamoyl}-1H-pyrrole-2-carboxamide] gave an EC50 (HBV [1]) of 30 nM, a CC50 at 4 days [2] of 13 µM and an EC50 (HBV [3]) of 80 nM.
For `Cc1c(S(=O)(=O)N[C@H](C)C(F)(F)F)cn(C)c1C(=O)Nc1ccc(F)c(Cl)c1F` [Compound 210, N-(3-Chloro-2,4-difluorophenyl)-1,3-dimethyl-4-{[(1R)-2,2,2-trifluoro-1-methylethyl]sulfamoyl}-1H-pyrrole-2-carboxamide], the EC50 (HBV [1]) was 50 nM, the CC50 at 4 days [2] was > 25 µM and the EC50 (HBV [3]) was 50 nM.
In the case of `C[C@@H](NS(=O)(=O)c1cn(C)c(C(=O)Nc2ccc(F)c(F)c2)c1F)C(F)(F)F` [Compound 229, N-(3,4-Difluorophenyl)-3-fluoro-1-methyl-4-{[(1R)-2,2,2-trifluoro-1-methylethyl]sulfamoyl}-1H-pyrrole-2-carboxamide], the EC50 (HBV [1]) is reported as 4 nM, the CC50 at 4 days [2] is reported as > 25 µM and the EC50 (HBV [3]) is reported as 4 nM.
With `C[C@H](NS(=O)(=O)c1cc(C(=O)Nc2ccc(F)c(F)c2)n(C)c1)C(F)(F)F` [Compound 93, N-(3,4-Difluorophenyl)-1-methyl-4-{[(1S)-2,2,2-trifluoro-1-methyl-ethyl]sulfamoyl}-1H-pyrrole-2-carboxamide] the EC50 (HBV [1]) was 30 nM, the CC50 at 4 days [2] was > 25 µM and the EC50 (HBV [3]) was 30 nM.
With `C[C@@H](NS(=O)(=O)c1cc(C(=O)Nc2cccc(C#N)c2F)n(C)c1)C(F)(F)F` [Compound 160, N-(3-Cyano-2-fluorophenyl)-1-methyl-4-{[(1R)-2,2,2-trifluoro-1-methylethyl]sulfamoyl}-1H-pyrrole-2-carboxamide] the EC50 (HBV [1]) was 130 nM, the CC50 at 4 days [2] was > 25 µM and the EC50 (HBV [3]) was 160 nM.
In the case of `CC(C)NS(=O)(=O)c1cc(C(=O)Nc2ccc(F)c(Cl)c2F)n(C)c1` [Compound 172, N-(3-Chloro-2,4-difluorophenyl)-1-methyl-4-[(1-methylethyl)sulfamoyl]-1H-pyrrole-2-carboxamide], the EC50 (HBV [1]) is reported as 80 nM, the CC50 at 4 days [2] is reported as > 25 µM and the EC50 (HBV [3]) is reported as 100 nM.
For `C[C@H](CO)NS(=O)(=O)c1cc(C(=O)Nc2ccc(F)c(F)c2)n(C)c1` [Compound 24, N-(3,4-difluorophenyl)-4-[[(1R)-2-hydroxy-1-methyl-ethyl]sulfamoyl]-1-methyl-pyrrole-2-carboxamide], the EC50 (HBV [1]) was 300 nM, the CC50 at 4 days [2] was > 25 µM and the EC50 (HBV [3]) was 200 nM.
For `Cn1cc(S(=O)(=O)NC2(C)COC2)cc1C(=O)Nc1cc(F)cc(C(F)(F)F)c1` [Compound 45, N-[3-fluoro-5-(trifluoromethyl)phenyl]-1-methyl-4-[(3-methyloxetan-3-yl)sulfamoyl]pyrrole-2-carboxamide], the EC50 (HBV [1]) was 340 nM, the CC50 at 4 days [2] was > 25 µM and the EC50 (HBV [3]) was 320 nM.
With `C[C@H](CO)NS(=O)(=O)c1cc(C(=O)Nc2ccc(F)c(C(F)F)c2)n(C)c1` [Compound 40, N-[3-(difluoromethyl)-4-fluoro-phenyl]-4-[[(1R)-2-hydroxy-1-methyl-ethyl]sulfamoyl]-1-methyl-pyrrole-2-carboxamide] the EC50 (HBV [1]) was 120 nM, the CC50 at 4 days [2] was > 25 µM and the EC50 (HBV [3]) was 200 nM.
For `Cn1cc(S(=O)(=O)NC(C)(C)C(F)(F)F)cc1C(=O)Nc1cc(Cl)c(F)c(Cl)c1` [Compound 163, N-(3,5-Dichloro-4-fluorophenyl)-1-methyl-4-[(2,2,2-trifluoro-1,1-dimethylethyl)sulfamoyl]-1H-pyrrole-2-carboxamide], the EC50 (HBV [1]) was 110 nM, the CC50 at 4 days [2] was 14.3 µM and the EC50 (HBV [3]) was 180 nM.
For `Cn1cc(S(=O)(=O)NC(C)(C)CF)cc1C(=O)Nc1ccc(F)c(C#N)c1` [Compound 249, N-(3-cyano-4-fluoro-phenyl)-4-[(2-fluoro-1,1-dimethyl-ethyl)sulfamoyl]-1-methyl-1H-pyrrole-2-carboxamide], the EC50 (HBV [1]) was 180 nM, the CC50 at 4 days [2] was 1.7 µM and the EC50 (HBV [3]) was 70 nM.
With `Cn1cc(S(=O)(=O)NC2(C)CC(F)(F)C2)cc1C(=O)Nc1ccc(F)c(C#N)c1` [Compound 245, N-(3-cyano-4-fluoro-phenyl)-4-[(3,3-difluoro-1-methyl-cyclobutyl)sulfamoyl]-1-methyl-1H-pyrrole-2-carboxamide] the EC50 (HBV [1]) was 40 nM, the CC50 at 4 days [2] was > 25 µM and the EC50 (HBV [3]) was 40 nM.
In the case of `Cn1cc(S(=O)(=O)NC2(C(F)(F)F)CCC2)c(Cl)c1C(=O)Nc1ccc(F)c(Cl)c1` [Compound 268, 3-chloro-N-(3-chloro-4-fluoro-phenyl)-1-methyl-4-{[1-(trifluoro-methyl)cyclobutyl]sulfamoyl}-1H-pyrrole-2-carboxamide], the EC50 (HBV [1]) is reported as 6 nM, the CC50 at 4 days [2] is reported as > 25 µM and the EC50 (HBV [3]) is reported as 5 nM.
For `Cn1cc(S(=O)(=O)NC2(C)COC2)cc1C(=O)Nc1ccc(F)c(C(F)(F)F)c1` [Compound 43, N-[4-fluoro-3-(trifluoromethyl)phenyl]-1-methyl-4-[(3-methyloxetan-3-yl)-sulfamoyl]pyrrole-2-carboxamide], the EC50 (HBV [1]) was 130 nM, the CC50 at 4 days [2] was > 25 µM and the EC50 (HBV [3]) was 110 nM.
With `C[C@@H](NS(=O)(=O)c1cn(C)c(C(=O)Nc2ccc(F)c(Cl)c2F)c1Cl)C(F)(F)F` [Compound 218, 3-Chloro-N-(3-chloro-2,4-difluorophenyl)-1-methyl-4-{[(1R)-2,2,2-trifluoro-1-methylethyl]sulfamoyl}-1H-pyrrole-2-carboxamide] the EC50 (HBV [1]) was 7 nM, the CC50 at 4 days [2] was > 25 µM and the EC50 (HBV [3]) was 9 nM.
In the case of `Cc1cc(NC(=O)c2cc(S(=O)(=O)N[C@@H](C)C(F)(F)F)cn2C)ccc1F` [Compound 8, N-(4-fluoro-3-methyl-phenyl)-1-methyl-4-[[(1S)-2,2,2-trifluoro-1-methyl-ethyl]sulfamoyl]pyrrole-2-carboxamide], the EC50 (HBV [1]) is reported as 20 nM, the CC50 at 4 days [2] is reported as > 25 µM and the EC50 (HBV [3]) is reported as 20 nM.
In the case of `Cn1cc(S(=O)(=O)NC(CF)CF)cc1C(=O)Nc1ccc(F)c(Cl)c1F` [Compound 264, N-(3-chloro-2,4-difluoro-phenyl)-4-{[2-fluoro-1-(fluoromethyl)-ethyl]sulfamoyl}-1-methyl-1H-pyrrole-2-carboxamide], the EC50 (HBV [1]) is reported as 130 nM, the CC50 at 4 days [2] is reported as > 25 µM and the EC50 (HBV [3]) is reported as 90 nM.
With `C[C@H](NS(=O)(=O)c1cc(C(=O)Nc2ccc(F)c(Br)c2)n(C)c1)C(F)(F)F` [Compound 101, N-(3-Bromo-4-fluorophenyl)-1-methyl-4-{[(1S)-2,2,2-trifluoro-1-methylethyl]sulfamoyl}-1H-pyrrole-2-carboxamide] the EC50 (HBV [1]) was 30 nM, the CC50 at 4 days [2] was > 25 µM and the EC50 (HBV [3]) was 30 nM.
In the case of `Cc1c(F)ccc(NC(=O)c2cc(S(=O)(=O)NC3(C(F)(F)F)CC3)cn2C)c1F` [Compound 117, N-(2,4-Difluoro-3-methylphenyl)-1-methyl-4-{[1-(trifluoromethyl)-cyclopropyl]sulfamoyl}-1H-pyrrole-2-carboxamide], the EC50 (HBV [1]) is reported as 10 nM, the CC50 at 4 days [2] is reported as > 25 µM and the EC50 (HBV [3]) is reported as 7 nM.
For `CCC(C)(NS(=O)(=O)c1cc(C(=O)Nc2cc(F)c(F)c(Cl)c2)n(C)c1)C(F)(F)F` (single isomer, unassigned) [Compound 165a, N-(3-chloro-4,5-difluoro-phenyl)-1-methyl-4-[[1-methyl-1-(trifluoro-methyl)propyl]sulfamoyl]pyrrole-2-carboxamide], the EC50 (HBV [1]) was 40 nM, the CC50 at 4 days [2] was 9.3 µM and the EC50 (HBV [3]) was 150 nM.
